Reference: patent publication US8221729B2, “Use of aminophenylbenzotriazole derivatives for protecting human and animal skin and hair from the harmful effects of UV radiation and cosmetic compositions thereof” (BASF SE, priority 2006, dated 2012)

Assay: UV-spectrum in ethanol
Format: physicochemical
Conditions: for UV-spectrum: ε: at λmax, in M-1cm-1 (unit assumed)

UV-spectrum: λmax | UV-spectrum: ε | Compound
385 nm | 29591 | CCN(CC)c1ccc(-n2nc3ccccc3n2)c(O)c1 [Example A-1]
346 nm | 29933 | CCCCCC(=O)Nc1ccc(-n2nc3ccccc3n2)c(O)c1 [Example A-2]
